Laboratory results reported in patent US20080167314A1, “Condensed Imidazole Compound And Use Thereof” (priority 2004, published 2008).

Assays:
[1] = test system: MMP-13 production in human normal articular chondrocytes; assay: Measurement of MMP-13 production inhibitory activity in rhIL-1β-stimulated human normal articular chondrocytes (ELISA); format: cell-based; conditions: Chondrocyte, rhIL-1β 0.1 ng/mL, 24 hr, MMP-13 in culture supernatant by ELISA
Protocol: Measurement of MMP-13 Production Inhibitory Activity
Human normal articular chondrocytes (Camblex) were grown in a chondrocyte growth medium (CGM: Camblex), and the cells were suspended in a chondrocyte differentiation medium (CDM: Camblex) and plated on a 96 well plate at 2×10^4 cells/well (150 μL/well). After culturing for 3 days under 37° C., 5% CO2 conditions, the culture medium was exchanged to 0.1% BSA added α-modification of Eagle's (α-MEM: Gibco), and the cells were cultured for 4 hr. The compound was added thereto and, after culture for 1 hr, recombinant human IL-1β (rhIL-1β: R&D systems) was added at 0.1 ng/mL. After culture for 24 hr, the culture supernatant was recovered, and the concentration of MMP-13 in the culture supernatant was measured by the ELISA method (Amersham).

[2] = test system: TNF-α production in THP-1 cells; assay: Measurement of TNF-α production inhibitory activity in LPS-stimulated THP-1 cells (ELISA); format: cell-based; conditions: Homo sapiens, LPS 5 μg/mL, 4 hours, TNF-α in supernatant by ELISA
Protocol: Measurement of TNF-α Production Inhibitory Activity
After THP-1 cells which had been cultured in PRMI 1640 medium (manufactured by Life Technologies, Inc.) containing 1% non-activated bovine fetal serum (manufactured by Life Technologies, Inc., U.S.A.) and 10 mM HEPES (pH 7.5) was plated on a 96-well plate to 1×10^5 cells/well, 1 μL test compound dissolved in DMSO was added to there. After incubation at 37° C. for 1 hour in a CO2 incubator, LPS (Wako Pure Chemicals) was added to the final concentration 5 μg/mL. After cultured at 37° C. for 4 hours in a CO2 incubator, the supernatant was obtained by centrifugation. The concentration of TNF-α in the supernatant was measured with ELISA (R&D System, Quantikine Kit). The concentration (IC50 value) necessary for inhibiting TNF-α production by 50% was calculated by PRIMS 2.01 (Graphpad Software).

[3] = biological target: T1, active form p38 MAP kinase (Homo sapiens, UniProt Q16539); assay: Measurement of the p38 MAP kinase inhibitory activity (32P uptake into Myelin Basic Protein); format: biochemical; conditions: 260 ng active form p38 MAP kinase, 1 μg Myelin Basic Protein, 2.5 μM ATP solution, 30° C. for 60 minutes
T1 construct: made in house; host or cells: Sf-21 insect cells, baculovirus BAC-HP38 co-infected with BAC-caMKK3
T1 sequence (Q16539 whole entry): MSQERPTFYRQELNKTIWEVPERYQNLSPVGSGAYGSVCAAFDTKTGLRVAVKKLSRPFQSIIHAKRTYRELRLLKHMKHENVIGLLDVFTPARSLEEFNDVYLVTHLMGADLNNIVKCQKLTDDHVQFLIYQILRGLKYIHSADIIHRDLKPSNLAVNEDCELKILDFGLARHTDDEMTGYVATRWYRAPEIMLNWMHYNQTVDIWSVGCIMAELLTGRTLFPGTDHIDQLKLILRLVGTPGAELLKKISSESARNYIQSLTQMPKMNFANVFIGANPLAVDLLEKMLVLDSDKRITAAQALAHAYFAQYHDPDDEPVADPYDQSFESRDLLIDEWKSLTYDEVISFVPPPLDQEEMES
Protocol: (1) Cloning of Human p38 MAP Kinase Gene and Preparation of Recombinant Baculovirus
Cloning of human p38 MAP kinase gene was performed by a PCR method using a primer set P38-U:
(3) Preparation of Active Form p38 MAP Kinase
The Sf-21 cells were seeded on 100 ml Sf-900II SFM medium (GIBCOBRL) to 1×10^6 cells/mL and cultured at 27° C. for 24 hours. After each 0.2 mL of the virusstock BAC-HP38 of recombinant Baculovirus and BAC-caMKK3 were added, the culturing was further performed for 48 hours. After the cells were separated from the culturing solution by centrifugation (3000 rpm, 10 min), the cells were washed twice with PBS. After the cells were suspended in 10 ml Lysis buffer (25 mM HEPES (pH 7.5), 1% Triton X, 130 mM NaCl, 1 mM EDTA, 1 mM DTT, 25 mM β-glycerophosphate, […], 1 mM APMSF, 1 mM Sodium orthovanadate), the cells were lysed by treating twice with a homogenizer (POLYTRON) at 20000 rpm for 2 minutes. By using Anti-FLAG M2 Affinity Gel (Eastman Chemical), active form p38 MAP kinase was purified from the supernatant obtained by centrifugation (40000 rpm, 45 minutes).
(4) Measurement of the p38 MAP Kinase Inhibitory Activity
2.5 μL of a test compound dissolved in DMSO was added to 37.5 μL reaction solution (25 mM HEPES (pH 7.5), 10 mM Magnesium Acetate) containing 260 ng active form p38 MAP kinase and 1 μg Myelin Basic Protein, which was maintained at 30° C. for 5 minutes. The reaction was initiated by adding 10 μL ATP solution (2.5 μM ATP, 0.1 μCi [g-^32P]ATP). After the reaction was performed at 30° C. for 60 minutes, the reaction was stopped by adding 50 μL 20% TCA solution. After the reaction solution was allowed to stand at 0° C. for 20 minutes, an acid insoluble fraction was transferred to GF/C filter (Packard Japan) using Cell Harvester (Packard Japan) and washed with 250 mM H3PO4. After drying at 45° C. for 60 minutes, […] Microscint 0 (Packard Japan) was added and the radioactivity was measured with a TopCount (Packard Japan). The concentration (IC50 value) necessary for inhibiting uptake of ^32P into an acid insoluble fraction by 50% was calculated with PRISM 2.01 (Graphpad Software).

IC50 [2] [µM]	IC50 [3] [µM]	Compound	IC50 [1] [µM]
0.0054	0.0097	Cc1cccc(-c2nc3cccnn3c2-c2ccnc(NC(=O)C3CC3)c2)c1 [Example compound 20-10, N-{4-[2-(3-methylphenyl)imidazo[1,2-b]pyridazin-3-yl]pyridin-2-yl}cyclopropanecarboxamide]	0.025
0.0038	0.014	Cc1cccc(-c2nc3cccnn3c2-c2ccnc(NC(=O)c3ccc(F)cc3)c2)c1 [Example compound 20-11, 4-fluoro-N-{4-[2-(3-methylphenyl)imidazo[1,2-b]pyridazin-3-yl]pyridin-2-yl}benzamide]	0.04
0.045	0.0079	CCNC(=O)Nc1cc(-c2c(-c3ccc(F)c(C)c3)nc3cccnn23)ccn1 [Example compound 28-3, N-ethyl-N′-{4-[2-(4-fluoro-3-methylphenyl)imidazo[1,2-b]pyridazin-3-yl]pyridin-2-yl}urea]	0.57
0.064	0.014	Cc1cc(-c2nc3cccnn3c2-c2ccnc(NC(=O)NC(C)C)c2)ccc1F [Example compound 28-5, N-{4-[2-(4-fluoro-3-methylphenyl)imidazo[1,2-b]pyridazin-3-yl]pyridin-2-yl}-N′-isopropylurea]	0.064
